The structures appear in SMILES notation.

The target in data set [1] is T1, hPTHR1 (Homo sapiens, UniProt Q03431).
T1 construct: similar to that of cells expressing full-length hPTHR1; expressed in transfected cells; host or cells: COS-7 (transient, FuGENE HD)
T1 sequence (Q03431 27-593 E93Y/D94P/K95Y/E96D/A97V/T99D/G100Y/S101A): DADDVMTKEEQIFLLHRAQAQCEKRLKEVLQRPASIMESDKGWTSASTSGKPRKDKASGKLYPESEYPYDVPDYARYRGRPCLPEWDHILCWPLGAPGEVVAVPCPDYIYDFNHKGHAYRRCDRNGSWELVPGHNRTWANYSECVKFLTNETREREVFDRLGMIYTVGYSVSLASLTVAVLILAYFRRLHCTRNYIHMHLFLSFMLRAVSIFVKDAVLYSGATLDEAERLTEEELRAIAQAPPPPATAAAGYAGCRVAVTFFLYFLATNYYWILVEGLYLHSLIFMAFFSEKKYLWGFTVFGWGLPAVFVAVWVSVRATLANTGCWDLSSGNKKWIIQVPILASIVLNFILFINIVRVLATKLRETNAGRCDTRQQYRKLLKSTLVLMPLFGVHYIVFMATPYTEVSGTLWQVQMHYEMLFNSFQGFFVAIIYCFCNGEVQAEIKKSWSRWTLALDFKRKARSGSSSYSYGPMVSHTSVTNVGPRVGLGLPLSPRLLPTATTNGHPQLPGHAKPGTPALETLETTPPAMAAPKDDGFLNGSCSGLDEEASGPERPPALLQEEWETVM
The data set is described as follows: Receptor binding assay, competition with 125I-[Aib1,3,M]–PTH(1–15) on COS-7 membranes. The following applies: at 100 μmol l^−1. How it is done:
COS-7 cells (ATCC) were seeded into 10-cm dishes (1.7 × 10^6 cells per dish) and incubated overnight. The next day, the COS-7 cells were transfected by adding 500 μl of a mixture of hPTHR1 plasmid (10 μg per dish), FuGENE HD Transfection Reagent (40 μl per dish, Promega) and Opti-MEM I Reduced Serum Medium (450 μl per well, Life Technologies) to each dish. On the third day after the cells were seeded into the dishes, the culture medium in the dishes was discarded, each dish was washed with 5 ml of Buffer A (10 mmol l^−1 Tris-HCl, pH 7.4/4 mmol l^−1 EDTA) without protease inhibitor cocktail (PI; Nacalai Tesque, Inc.), and then 750 μl of Buffer A (10 mmol l^−1 Tris-HCl, pH 7.4/4 mmol l^−1 EDTA/1 × PI) was added to each dish. […] The protein concentration was determined using Protein Assay Dye Reagent Concentrate (Bio-Rad Laboratories, Inc). […]
The binding of hPTH(1–34) and PCO371 free base to hPTHR1 was evaluated by competition assay using ^125I-[Aib^1,3,M]PTH(1–15) as the competing entity. […] The dried filter was recovered, and the ^125I radioactivity was measured using a gamma counter. […] Total ^125I count rates (cpm) measured by the gamma counter were used as the primary data. Binding to hPTHR1 was evaluated by calculating the per cent specific binding from the following formula using Microsoft Office Excel 2007.
Percentage specific binding was calculated by the following formula: equation (1) […]

Data set [2] in a line: Pharmacokinetics in normal rats. The note with it: for half-life / AUC(0-inf) / Cmax / Tmax: female, RccHan:WIST, rat, plasma, po.
Procedure: PCO371 was administered at a dose of 2, 6 or 18 mg kg^−1 orally to 7-week-old normal female rats (RccHan: WIST, JLA; three rats for each dose group), or at a dose of 2, 6 or 18 mg kg^−1 orally to 7-week-old female TPTX rats [Crl:CD(SD), Charles River Laboratories; three TPTX rats for each dose group] or at 30 mg kg^−1 orally or 3, 10 mg kg^−1 intravenously to 55-week-old OVX rats as described above. Blood samples were collected at 15 and 30 min, and 1, 2, 4, 8 and 24 h after administration. […] The concentrations of plasma PCO371 were determined by liquid chromatography–tandem mass spectrometry [LC-MS/MS (API-3200 (AB SCIEX), detection limit: 1 ng ml^−1).
The test system of data set [3] is TPTX rats. The data set is described as follows: Repeated administration study in TPTX rats, study 2 (add-on to alfacalcidol). The data set is classed as in vivo, rat. The note with it: once-daily oral 6 mg kg^−1 plus 38 ng kg^−1 of alfacalcidol, 4 weeks. How it is done:
TPTX was carried out in 6-week-old female Crl:CD (SD) rats (Charles River Laboratories). Rats with serum Ca levels of <8.0 mg dl^−1 at 5 days after surgery were used in the following experiments. The rats were divided into four groups both in study 1 and 2, each with a similar mean value of serum Ca levels and body weight. Sample sizes were determined as described in the above single administration study. To evaluate the calcemic effects of PCO371 and hPTHs, we defined a target therapeutic range for serum Ca of 7.6–11.2 mg dl^−1, which corresponds to the low normal to normal range of serum Ca levels.
TPTX rats were orally treated once daily (vehicle; alfacalcidol (Chugai Pharma Manufacturing) at 38 or 75 ng kg^−1; or alfacalcidol at 38 ng kg^−1 plus PCO371 at 6 mg kg^−1) for 4 weeks. Five or six TPTX rats were assigned to each dose group. The vehicle for alfacalcidol was medium-chain triglyceride (Chugai Pharma Manufacturing). Under isoflurane anaesthesia, jugular vein blood was collected immediately before and at 6 and 10 h after administration to measure serum Ca levels on day 1 (the first dosing day), 8, 14, 22 and 28. Urine was collected for 24 h by using metabolic cages on days 28 and 29. Serum and urine Ca levels were measured in the same way as in the single-dosing study.

As for `Cc1cc(N2C(=O)NC(=O)C2(C)C)cc(C)c1CCS(=O)(=O)N1CCC2(CC1)N=C(c1ccc(OC(F)(F)F)cc1)NC2=O` [PCO371, 1-{3,5-dimethyl-4-[2-({4-oxo-2-[4-(trifluoromethoxy)phenyl]-1,3,8-triazaspiro[4.5]dec-1-en-8-yl}sulfonyl)ethyl]phenyl}-5,5-dimethylimidazolidine-2,4-dione], in data set [1], the “inhibition of the binding of 125I-[Aib1,3,M]–PTH(1–15)” value is on record as “almost completely”. The compound further gave a half-life in data set [2] of 1.5 to 1.7 h. For the same compound, in data set [2] (2 mg/kg), the total exposure AUC(0-inf) was 374 ± 187 ng·h/mL, the highest concentration (Cmax) stood at 92.5 ± 37.1 ng/mL, the time to peak (Tmax) was 1.5 ± 0.9 h and the half-life is 1.5 ± 0.1 h. In addition, in data set [2] (6 mg/kg), the AUC(0-inf) is 2360 ng·h/mL, the highest level (Cmax) was 727 ± 103 ng/mL, the Tmax turned out to be 1 h and the half-life is 1.4 ± 0.2 h. Also, in data set [2] (18 mg/kg), the area under the curve AUC(0-inf) came to 18600 ng·h/mL, the highest level (Cmax) was 4560 ng/mL, the Tmax is 1.3 ± 0.6 h and the half-life is 1.7 ± 0.3 h. Moreover, the “BA (oral bioavailability)” value in data set [2] (normal rats, p.o. 2 mg kg^−1) was found to be 34%. In data set [2] (normal rats, single oral dose, dose range tested), the “time at which Cmax was attained” value lay in the range of 1 to 1.5 h. For the same compound, in data set [3], the “serum Ca” value is listed as “comparable with that by 75 ng kg^−1 of alfacalcidol alone” and the “urinary Ca excretion” value was “did not elevate urinary Ca excretion”.
